Reference: patent US5455234A, “Inhibition of hair growth” (priority 1994, dated 1995)

How the values were obtained:
[1] = tested on: flank organs of Golden Syrian hamsters (androgen-stimulated hair growth); assay: Golden Syrian hamster assay (flank organ hair mass after topical application); format: in vivo
Description: Male intact Golden Syrian hamsters are considered acceptable models for human beard hair growth in that they display oval shaped flank organs, one on each side, each about 8 mm. in major diameter, which grow thick black and coarse hair similar to human beard hair. These organs produce hair in response to androgens in the hamster. To evaluate the effectiveness of a composition including an inhibitor, the flank organs of each of a group of hamsters are depilated by applying a thioglycolate based chemical depilatory (Surgex). To one organ of each animal 25 μl. of vehicle alone once a day is applied, while to the other organ of each animal an equal amount of vehicle containing an inhibitor of a cysteine synthetic pathway enzyme is applied. After thirteen applications (one application per day for five days a week), the flank organs are shaved and the amount of recovered hair (hair mass) from each is weighed. Percent-reduction of hair growth is calculated by subtracting the hair mass (mg) value of the test compound treated side from the hair mass value of the vehicle treated side; the delta value obtained is then divided by the hair mass value of the vehicle treated side, and the resultant number is multiplied by 100.
The above-described assay will be referred to herein as the "Golden Syrian hamster" assay.

[2] = tested on: cysteine synthetic pathway intermediates in flank organ hair follicles; assay: Amino acid analysis of hamster flank organ hair follicles (Pico-Tag); format: in vivo; conditions: hair follicles of treated flank organs, vehicle A
Procedure: Hair follicles were isolated from the flank organs which were treated with either an inhibitor of a cysteine pathway enzyme or the carrier without the inhibitor (the control). L-Cystathiorine, homocysteine, and S-adenosyl homocysteine, which are involved in a pathway leading to cysteine synthesis, were measured by an amino acid analysis method. The amino analysis of hamster flank organ hair follicles was carried out using a commercially available system (Pico-Tag; Waters Associates, Inc., Milford, Mass.). Hair follicle amino acids were extracted with 0.1N HCL, an derivatized with phenylisothiocyanate to yield the phenylthiohydantion derivatives of the respective amino acids, which were then separated by C-18 reverse phase chromatography, and quantitated by in-line UV spectrophotometry.
More specifically, 250-500 μl of 0.1N HCL was added to each flank organ hair follicle sample, followed by treatment with a sonicator device to obtain cell extracts. The cell extracts were centrifuged at 12,000×gfor 5 min, and the recovered supernatant was filtered through 0.45μ filter. The filtrate was vacuum dried under nitrogen using the Pico-Tag work station. Samples were then derivatized with phenylisothiocyanate reagent by the procedure described in the Waters Associates Pico-Tag manual. An aliquot of the derivatized sample was injected on a C-18 reverse phase column (Pico-Tag column) and the elution was carried out with a gradient buffer system. This procedure separated the amino acids L-cystathionine, homocysteine, and S-adenosyl homocysteine from other amino acids present in hair follicle extracts. The amino acid concentrations were determined at UV wavelength 254 nm using an in-line spectrophotometer and a dedicated HPLC control and data analysis system (Waters Associates).

[3] = topical, dose 10%, vehicle A, pH 4.5, 13 applications
[4] = topical, dose 15%, vehicle A, pH 8.0, 13 applications
[5] = topical, dose 15%, vehicle B, pH 9.5, 13 applications
[6] = topical, dose 20%, vehicle A, pH 8.5, 13 applications
[7] = topical, dose 20%, vehicle A, pH 7.5, 13 applications
[8] = topical, dose 20%, vehicle A, pH 7.0, 13 applications
[9] = Table 2, topical, dose 0.25%, vehicle A, pH 4.5
[10] = Table 2, topical, dose 0.50%, vehicle A, pH 5.0
[11] = Table 2, topical, dose 1.00%, vehicle A, pH 5.0
[12] = Table 2, topical, dose 5.00%, vehicle A, pH 5.0
[13] = topical, dose 5%, vehicle A, pH 4.5, 13 applications

SMILES: Nc1ncnc2c1ncn2[C@@H]1O[C@H](CO)[C@@H](O)[C@H]1O [Adenosine]
- Hair Mass Treated (mg mean ± SEM) [1, 3]: 1.140 ± 0.12 mg
- Percent Inhibition (mean ± SEM) [1, 3]: 55.28 ± 4.00%

SMILES: N[C@@H](COC(=O)CCC(=O)O)C(=O)O [O-Succinyl serine]
- Hair Mass Treated (mg mean ± SEM) [1, 4]: 0.710 ± 0.07 mg
- Percent Inhibition (mean ± SEM) [1, 4]: 63.58 ± 4.69%
- Homocysteine, Percent of Untreated Control (100%) ([2]; dose 15%, pH 8.0): 228%
- L-Cystathionine, Percent of Untreated Control (100%) ([2]; dose 15%, pH 8.0): 66%

SMILES: C#CCC(N)C(=O)O (racemic) [DL-Propargylglycine, D,L-2-amino-4-pentynoic acid]
- Hair Mass Treated (mg mean ± SEM) [1, 5]: 1.401 ± 0.14 mg
- Percent Inhibition (mean ± SEM) [1, 5]: 33.12 ± 5.59%

SMILES: NNC(=O)c1ccncc1 [Isonicotinic acid hydrazide]
- Hair Mass Treated (mg mean ± SEM) [1, 6]: 1.344 ± 0.18 mg
- Percent Inhibition (mean ± SEM) [1, 6]: 35.13 ± 7.98%

SMILES: NC(C(=O)O)C(F)(F)F (racemic) [3,3,3,-Trifluoro-DL-alanine]
- Hair Mass Treated (mg mean ± SEM) [1, 7]: 1.110 ± 0.13 mg
- Percent Inhibition (mean ± SEM) [1, 7]: 32.36 ± 8.01%

SMILES: CC(=O)OC[C@H]1O[C@@H](n2ncc(=O)[nH]c2=O)[C@H](OC(C)=O)[C@@H]1OC(C)=O [6-Azauridine-2',3',5'-triacetate]
- Hair Mass Treated (mg mean ± SEM) [1, 8]: 0.455 ± 0.05 mg
- Percent Inhibition (mean ± SEM) [1, 8]: 80.25 ± 2.37%
- L-Cystathionine, Percent of Untreated Control (100%) ([2]; dose 20%, pH 7.0): 60%

SMILES: Nc1nccc2c1ncn2[C@@H]1C=C(CO)[C@@H](O)[C@H]1O [3-Deazaneplanocin]
- Hair Mass Treated [1, 9]: 1.889 ± 0.15 mg
- Percent Inhibition (mean ± SEM) [1, 9]: 14.82 ± 5.45%
- Hair Mass Treated [1, 10]: 1.487 ± 0.16 mg
- Percent Inhibition (mean ± SEM) [1, 10]: 35.49 ± 4.62%
- Hair Mass Treated [1, 11]: 1.113 ± 0.08 mg
- Percent Inhibition (mean ± SEM) [1, 11]: 50.94 ± 4.77%
- Hair Mass Treated [1, 12]: 0.357 ± 0.15 mg
- Percent Inhibition (mean ± SEM) [1, 12]: 86.65 ± 4.81%
- dose dependence of inhibition in hair growth ([1]; topical application, dosage levels 0.25% to 5.00%): increased dosage level of the inhibitor provided an increased inhibition in hair growth
- Hair Mass Treated (mg mean ± SEM) [1, 13]: 0.357 ± 0.15 mg
- Percent Inhibition (mean ± SEM) [1, 13]: 86.65 ± 4.81%
- L-Cystathionine, Percent of Untreated Control (100%) ([2]; dose 0.125%, pH 4.5): 49%
- S-Adenosyl Homocysteine, Percent of Untreated Control (100%) ([2]; dose 0.125%, pH 4.5): 144%
- L-Cystathionine, Percent of Untreated Control (100%) ([2]; dose 0.250%, pH 4.5): 29%
- S-Adenosyl Homocysteine, Percent of Untreated Control (100%) ([2]; dose 0.250%, pH 4.5): 149%
- L-Cystathionine, Percent of Untreated Control (100%) ([2]; dose 0.500%, pH 4.5): 12%
- S-Adenosyl Homocysteine, Percent of Untreated Control (100%) ([2]; dose 0.500%, pH 4.5): 218%
